Read-outs that look alike come from different tables or passages of the source.
Tests used:
[1] = oral co-administration; cited from earlier work
[2] = target: T1, P-gp (Homo sapiens, UniProt P08183); assay: Intracellular DOX accumulation assay in LCC6MDR cells
[3] = system: L929; design: method as in earlier work; details: mouse fibroblast cell line; read-out: Cytotoxicity IC50, L929; cited from earlier work
[4] = In vivo monitoring of FD18 and its metabolites in plasma after I.V. FD18; design: species or system SD rats; details: after FD18 5 mg/kg I.V.; for AUC(0-t) / Cmax / Tmax: Sprague-Dawley, rat, iv
Description: Figure 3 Proposed metabolism pathway of FD18 and its metabolites formed in vivo. (A) metabolism study of FD18 was conducted on human liver microsomes (HLM) and rat liver microsomes (RLM) in vitro. Chemical structure of the 3 metabolites was predicted by LC/QTOF-MS/MS and confirmed by the synthetic compounds (Figure 2E–J). The pathways for biotransformation of FD18 into FM04 was proposed. (B) plasma concentration profile of FD18 and the in vivo formation of metabolites M1, M2 and M3. After I.V. injection of FD18 (5 mg/kg) into […], plasma was collected at 10, 30, 60, 120, 240, 420 and 600 min, respectively. The concentration of FD18 at each time point was determined by UPLC-MS/MS. Its plasma concentration was further quantified with peak area ratio of FD18 against D7-18. […] In vivo formation of metabolites M1, M2 and M3 were monitored and quantified by UPLC-MS/MS with corresponding calibration curve of 14a, FM04 and FM327. Pharmacokinetic parameter AUC was calculated by the pharmacokinetic software-Summit® PK solutions 2.0 (Summit Research Service, Ashland, Wilmington, DE, USA).
FD18 stock solution was freshly prepared in 33% Cremophor EL, 33% ethanol and 33% saline at a concentration of 9.5 mg/mL. FD18 stock solution was then diluted with saline to form a 4 mg/mL working solution for animal injection. SD rats were intravenously (I.V.) administered with FD18 at 5 mg/kg (n = 3). Blood samples (approx. 300 μL) were taken via jugular vein at 10, 30, 60, 120, 240 and 420 min post-administration. Blood samples were centrifuged at 16,100× g for 10 min to obtain plasma. Plasma samples (50 µL) were spiked with 15 μL of internal standard (IS) (D7-NBn, 10 μg/mL). Two hundred microliter of methanol was added for protein precipitation. Samples were centrifuged at 16,100× g for 10 min prior to filtering by 0.22 μm syringe filter for UPLC-MSMS analysis.
The UPLC-MS/MS system consists of an Agilent 1260 infinity UPLC interfaced with a triple quadrupole mass spectrometer (Agilent 6460) equipped with an electrospray ionization source in positive mode. Zorbax Eclipse XDB-C8 (4.6 × 150 mm, 5 µM) was used for separation. The mobile phase for chromatographic separation consisted of methanol + 0.1% formic acid (solvent B) and Milli-Q water + 0.1% formic acid (solvent A) with gradient elution of 30% solvent B to 100% solvent B in 5 min. The elution condition was allowed for equilibrium from the 7th min onward. The analysis time for each injection was 13 min. The flow rate was 0.4 mL/min. The synthetic compound D7-NBn, the deuterated benzyl form of FD18, was used as the internal standard (IS) for the quantification of the three metabolites. Multiple reaction monitoring (MRM) was set to monitor the transitions of D7-NBn [M+H]^+, FD18 [M+H]^+, M1 [M+H]^+, M2 [M+H]^+ and M3 [M+H]^+ at 731.01 > 98.1 m/z, 724.01 > 91.1 m/z, 634.01 > 114 m/z, 416.01 > 91.1 m/z and 327.01 > 239 m/z, respectively. The coefficient of determination (R^2) for 14a, FM04 and FM327 were above 0.99. The dynamic range for the metabolites in the current setting is 78 ng/mL to 2.44 ng/mL.

[5] = target: T1, P-gp; design: expressed in transfected cells; host or cells: MDA435/LCC6MDR (human melanoma); method as in PMID 22320402; details: LCC6MDR; cited from earlier work
[6] = target: T1, P-gp; assay: Reversal of P-gp-mediated MDR in LCC6MDR cells (MTS cell viability, 5 days)
Description: To each well of a 96-well plate, 6500 cells of LCC6MDR were seeded in 180 μL supplemented medium. A 10 µL compound (FD18, 14a, FM04 or FM327) at different concentrations (0, 62.5, 125, 250, 500 and 1000 nM) was added to the well. […] The final volume in each well was 200 µL and the 96-well plate was incubated at 37 °C for 5 days. The cell viability was determined using the MTS assay as reported previously. The % of cell survival, IC50 of anticancer drugs towards the LCC6MDR and the EC50 of modulators were analyzed using nonlinear regression in Prism 5.0 (Prism version 5.0, GraphPad software, San Diego, CA, USA).

[7] = target: T2, BCRP (Homo sapiens, UniProt Q9UNQ0); assay: BCRP-modulating activity in HEK293/R2 cells (MTS); assay type: cell-based; details: no modulator; read-out: IC50 of Topotecan in HEK293/R2, DMSO
T2 construct: expressed in transfected cells; host or cells: HEK293/R2
T2 sequence (Q9UNQ0 1-655): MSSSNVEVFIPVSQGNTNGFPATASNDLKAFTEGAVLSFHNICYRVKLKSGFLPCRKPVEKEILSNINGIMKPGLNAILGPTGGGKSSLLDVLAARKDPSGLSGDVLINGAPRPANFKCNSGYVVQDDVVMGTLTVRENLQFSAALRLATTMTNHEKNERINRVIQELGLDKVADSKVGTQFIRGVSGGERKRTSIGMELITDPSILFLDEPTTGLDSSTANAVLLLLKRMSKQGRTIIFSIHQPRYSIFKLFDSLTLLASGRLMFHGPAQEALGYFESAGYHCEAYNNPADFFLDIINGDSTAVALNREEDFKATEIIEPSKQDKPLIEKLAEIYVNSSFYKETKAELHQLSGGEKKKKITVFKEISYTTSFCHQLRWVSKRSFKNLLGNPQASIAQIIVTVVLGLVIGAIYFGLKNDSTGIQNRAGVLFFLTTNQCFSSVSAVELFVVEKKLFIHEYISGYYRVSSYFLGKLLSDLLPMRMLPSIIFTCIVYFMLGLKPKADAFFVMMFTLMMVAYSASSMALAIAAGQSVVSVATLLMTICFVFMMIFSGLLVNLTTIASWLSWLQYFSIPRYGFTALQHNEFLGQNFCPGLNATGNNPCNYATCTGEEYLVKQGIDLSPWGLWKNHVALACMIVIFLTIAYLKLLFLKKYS
Description: (§1) The final volume in each well of the 96-well plate was 200 μL. The plate was then incubated for 5 days at 37 °C. The cell viability was determined using an MTS assay as reported previously.

[8] = system: LCC6 cells; assay: IC50 of anticancer drugs in wild-type LCC6 with or without FM04; assay type: cell-based, human; details: for IC50: Homo sapiens; for RF, LCC6 + DMSO: IC50 in LCC6MDR without FM04 / IC50 in LCC6; for RF, LCC6 + 1 μM FM04: IC50 in LCC6MDR without FM04 / IC50 in LCC6 with FM04
From the text: Table S1. IC50 of anticancer drugs in LCC6 and LCC6MDR and P-gp modulating activity of FM04.
fold): IC50 of an anticancer drug of LCC6MDR without FM04/IC50 of an anticancer of LCC6 with or without
FM04 or LCC6MDR with FM04. N = 2 - 8 independent experiment. The IC50 values were presented as mean ±
standard error mean. /: not determined.

[9] = target: T3, MRP1 (Homo sapiens, UniProt P33527); assay: MRP1-modulating activity in 2008/MRP1 cells (MTS); assay type: cell-based; details: no modulator; read-out: IC50 of DOX in 2008/MRP1, DMSO
T3 construct: expressed in transfected cells; host or cells: 2008/MRP1 (human ovarian cancer)
T3 sequence (P33527 whole entry): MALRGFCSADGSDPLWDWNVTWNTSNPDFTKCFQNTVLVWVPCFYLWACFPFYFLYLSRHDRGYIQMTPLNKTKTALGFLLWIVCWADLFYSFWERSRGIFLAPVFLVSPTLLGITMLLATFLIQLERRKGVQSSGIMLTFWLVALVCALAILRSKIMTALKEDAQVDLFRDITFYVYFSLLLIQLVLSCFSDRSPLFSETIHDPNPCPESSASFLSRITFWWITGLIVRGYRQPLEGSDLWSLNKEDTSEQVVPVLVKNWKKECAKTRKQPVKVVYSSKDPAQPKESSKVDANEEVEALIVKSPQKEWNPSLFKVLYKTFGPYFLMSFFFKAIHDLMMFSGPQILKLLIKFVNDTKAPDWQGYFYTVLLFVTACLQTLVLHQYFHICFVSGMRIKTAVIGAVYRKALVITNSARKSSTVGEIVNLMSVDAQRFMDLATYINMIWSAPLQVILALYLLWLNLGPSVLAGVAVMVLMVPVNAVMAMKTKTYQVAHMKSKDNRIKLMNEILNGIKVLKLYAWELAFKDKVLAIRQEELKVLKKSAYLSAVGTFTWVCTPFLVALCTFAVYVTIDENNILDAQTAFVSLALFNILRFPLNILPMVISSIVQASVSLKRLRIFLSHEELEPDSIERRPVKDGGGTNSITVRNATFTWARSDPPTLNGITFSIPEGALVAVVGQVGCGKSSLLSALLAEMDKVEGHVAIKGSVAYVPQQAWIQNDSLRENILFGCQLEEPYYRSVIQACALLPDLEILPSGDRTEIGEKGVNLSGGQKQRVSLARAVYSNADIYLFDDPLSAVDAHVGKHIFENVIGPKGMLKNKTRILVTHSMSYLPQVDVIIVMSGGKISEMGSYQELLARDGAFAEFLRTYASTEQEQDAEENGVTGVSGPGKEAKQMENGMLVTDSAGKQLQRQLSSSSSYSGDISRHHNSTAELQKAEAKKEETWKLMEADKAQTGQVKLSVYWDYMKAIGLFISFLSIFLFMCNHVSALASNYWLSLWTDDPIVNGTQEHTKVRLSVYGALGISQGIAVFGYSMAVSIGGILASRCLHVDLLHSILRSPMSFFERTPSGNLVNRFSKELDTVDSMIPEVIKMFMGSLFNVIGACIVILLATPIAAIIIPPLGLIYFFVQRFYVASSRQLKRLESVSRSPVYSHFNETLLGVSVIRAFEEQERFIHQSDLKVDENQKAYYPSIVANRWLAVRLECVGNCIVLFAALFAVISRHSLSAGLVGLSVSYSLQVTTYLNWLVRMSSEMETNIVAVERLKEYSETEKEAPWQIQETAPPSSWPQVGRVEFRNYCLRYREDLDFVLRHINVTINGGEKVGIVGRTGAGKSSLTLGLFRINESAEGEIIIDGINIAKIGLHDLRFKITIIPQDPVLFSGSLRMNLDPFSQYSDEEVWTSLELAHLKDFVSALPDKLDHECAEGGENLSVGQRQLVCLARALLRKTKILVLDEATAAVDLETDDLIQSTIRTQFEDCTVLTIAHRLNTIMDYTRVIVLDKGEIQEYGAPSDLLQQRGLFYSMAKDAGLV
Description: as §1

[10] = target: T1, P-gp; design: expressed in transfected cells; host or cells: MDA435/LCC6MDR (human melanoma); details: read-out: EC50 for reversing PTX resistance; cited from earlier work
[11] = LCC-6, wild-type LCC6, no modulator, read-out: IC50 of anticancer drug, LCC6 + DMSO

T1 sequence (P08183 whole entry): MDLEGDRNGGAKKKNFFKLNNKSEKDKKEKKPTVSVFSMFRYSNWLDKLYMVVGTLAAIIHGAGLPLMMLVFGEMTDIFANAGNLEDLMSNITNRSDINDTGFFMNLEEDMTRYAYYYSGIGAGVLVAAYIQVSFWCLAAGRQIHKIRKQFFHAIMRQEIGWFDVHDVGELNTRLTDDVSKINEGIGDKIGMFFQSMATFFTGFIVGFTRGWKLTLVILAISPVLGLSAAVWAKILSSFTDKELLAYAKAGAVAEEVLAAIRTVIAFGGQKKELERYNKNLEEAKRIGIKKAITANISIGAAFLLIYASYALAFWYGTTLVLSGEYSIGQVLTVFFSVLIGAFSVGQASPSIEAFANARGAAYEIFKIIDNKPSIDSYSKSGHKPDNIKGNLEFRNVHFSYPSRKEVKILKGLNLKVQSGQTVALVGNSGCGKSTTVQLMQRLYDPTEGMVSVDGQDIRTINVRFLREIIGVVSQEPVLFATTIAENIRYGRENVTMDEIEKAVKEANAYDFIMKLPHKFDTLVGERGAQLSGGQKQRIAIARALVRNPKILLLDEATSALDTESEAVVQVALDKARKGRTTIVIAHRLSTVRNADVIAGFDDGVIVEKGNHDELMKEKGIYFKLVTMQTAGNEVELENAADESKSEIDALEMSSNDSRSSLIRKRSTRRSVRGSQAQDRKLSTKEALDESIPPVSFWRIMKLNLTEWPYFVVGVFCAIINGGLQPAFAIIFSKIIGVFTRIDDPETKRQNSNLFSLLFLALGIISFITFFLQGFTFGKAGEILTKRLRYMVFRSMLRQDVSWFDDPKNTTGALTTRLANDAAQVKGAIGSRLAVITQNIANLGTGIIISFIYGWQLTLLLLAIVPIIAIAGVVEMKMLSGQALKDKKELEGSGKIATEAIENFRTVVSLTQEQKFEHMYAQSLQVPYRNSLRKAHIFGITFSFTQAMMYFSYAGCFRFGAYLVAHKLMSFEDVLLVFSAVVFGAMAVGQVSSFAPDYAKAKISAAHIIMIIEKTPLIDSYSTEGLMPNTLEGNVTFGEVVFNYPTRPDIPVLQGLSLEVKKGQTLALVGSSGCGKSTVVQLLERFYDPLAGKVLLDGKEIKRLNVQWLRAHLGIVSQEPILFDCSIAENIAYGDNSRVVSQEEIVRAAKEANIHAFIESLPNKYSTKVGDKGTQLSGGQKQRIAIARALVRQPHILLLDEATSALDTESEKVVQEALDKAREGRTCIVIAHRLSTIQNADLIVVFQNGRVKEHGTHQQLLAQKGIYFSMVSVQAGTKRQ

Which “fold enhancement of the AUC of oral PTX vs a single oral dose of PTX” value [1] does the source give for `CC(C)c1nc(CN(C)C(=O)N[C@H](C(=O)N[C@@H](Cc2ccccc2)C[C@H](O)[C@H](Cc2ccccc2)NC(=O)OCc2cncs2)C(C)C)cs1` [ritonavir] here?
Its value is 2.5 fold.

Which results are given for `O=c1cc(-c2ccc(OCCOCCN(CCOCCOc3ccc(-c4cc(=O)c5ccccc5o4)cc3)Cc3ccccc3)cc2)oc2ccccc12` [FD18]?
EC50 [2]: 116 nM; IC50 [3]: 85 ± 5 µM; AUC(0-t) [4]: 682 ng·h/mL; Transport substrate of P-gp [5]: substrate of P-gp; RF (relative-fold) [6]: > 68; EC50 ([6]; EC50 for P-gp modulation, range over PTX reversal and DOX accumulation in LCC6MDR): 116 to 148 nM

Which IC50 [7] does the source give for `CC[C@@]1(O)C(=O)OCc2c1cc1n(c2=O)Cc2cc3c(CN(C)C)c(O)ccc3nc2-1` [Topotecan, topotecan] here?
The IC50 was 225 ± 32 nM.

Which IC50 [8, 11] does the source give for `CC[C@]1(O)C[C@H]2CN(CCc3c([nH]c4ccccc34)[C@@](C(=O)OC)(c3cc4c(cc3OC)N(C=O)[C@H]3[C@@](O)(C(=O)OC)[C@H](OC(C)=O)[C@]5(CC)C=CCN6CC[C@]43[C@@H]65)C2)C1` [Vincristine, vincristine] here?
Its IC50 is 0.71 ± 0.32 nM.

What about the “RF, LCC6 + DMSO” value [8] of the same compound?
The value was 39.3.

What about the “RF, LCC6 + 1 μM FM04” value [8] of the same compound?
The value was 21.5.

And the “RF, LCC6MDR + 1 μM FM04” value [6]?
The value was 68.0.

And the “RF, LCC6MDR + DMSO” value [6]?
The value was 1.0.

With `COc1cccc2c1C(=O)c1c(O)c3c(c(O)c1C2=O)C[C@@](O)(C(C)=O)C[C@@H]3O[C@H]1C[C@H](N)[C@H](O)[C@H](C)O1` [Daunorubicin, daunorubicin] as the compound, how does the IC50 ([8]; LCC-6, read-out: IC50 of anticancer drug, LCC6 + DMSO) read?
Its IC50 is 22.1 ± 2.2 nM.

What about the “RF, LCC6 + DMSO” value [8] of the same compound?
Its value is 60.5.

What about the “RF, LCC6MDR + 1 μM FM04” value [6] of the same compound?
The value was 6.3.

And the “RF, LCC6MDR + DMSO” value [6]?
Its value is 1.0.

For `COc1cccc2c1C(=O)c1c(O)c3c(c(O)c1C2=O)C[C@@](O)(C(=O)CO)C[C@@H]3O[C@H]1C[C@H](N)[C@H](O)[C@H](C)O1` [DOX, doxorubicin], which IC50 [8, 11] is on record?
The IC50 was 27 ± 4.6 nM.

And the “RF, LCC6 + DMSO” value [8]?
Its value is 38.6.

And the “RF, LCC6MDR + 1 μM FM04” value [6]?
The value was 25.2.

And the “RF, LCC6MDR + DMSO” value [6]?
Its value is 1.0.

And the IC50 [9]?
The IC50 was 616 ± 54.2 nM.

For `CC[C@]1(O)C[C@@H]2CN(CCc3c([nH]c4ccccc34)[C@@](C(=O)OC)(c3cc4c(cc3OC)N(C)[C@H]3[C@@](O)(C(=O)OC)[C@H](OC(C)=O)[C@]5(CC)C=CCN6CC[C@]43[C@@H]65)C2)C1` [Vinblastine, vinblastine], which IC50 [8, 11] is on record?
The IC50 was 0.38 ± 0.14 nM.

What about the “RF, LCC6 + DMSO” value [8] of the same compound?
The value was 24.2.

And the “RF, LCC6 + 1 μM FM04” value [8]?
Its value is 10.7.

What about the “RF, LCC6MDR + 1 μM FM04” value [6] of the same compound?
Its value is 61.3.

What about the “RF, LCC6MDR + DMSO” value [6] of the same compound?
The value was 1.0.

With `O=c1cc(-c2ccc(OCCOCCO)cc2)oc2ccccc12` [FM327, 2-(4-(2-(2-hydroxyethoxy)ethoxy)phenyl)-4H-chromen-4-one] as the compound, how does the AUC(0-t) [4] read?
The AUC(0-t) was 49.1 ng·h/mL.

And the Cmax [4]?
The Cmax was 21 ng/mL.

And the Tmax [4]?
Its Tmax is 50 min.

What about the “Normalized AUC (systemic exposure relative to FD18)” value ([4]; listed as M3) of the same compound?
Its value is 7%.

And the EC50 ([6]; EC50 needed for reversing MDR in LCC6MDR cells: PTX, LCC6MDR, PTX resistance)?
The EC50 was greater than 1000 nM.

What does the source list for `O=c1cc(-c2ccc(OCCOCCNCCOCCOc3ccc(-c4cc(=O)c5ccccc5o4)cc3)cc2)oc2ccccc12` [14a, 1,13-Bis[4′-(4H-chromen-4-on-2-yl)phenyl]-1,4,10,13-tetraoxa-7-azatridecane]?
AUC(0-t) [4]: 78.9 ng·h/mL; Cmax [4]: 18 ng/mL; Tmax [4]: 50 min; Normalized AUC (systemic exposure relative to FD18) ([4]; listed as M1): 12%; fold lower activity than FD18 in reversing PTX resistance [6]: 2.1 fold

For `O=c1cc(-c2ccc(OCCOCCOCCOCCOc3ccc(-c4cc(=O)c5ccccc5o4)cc3)cc2)oc2ccccc12` [compound 61], which “RF (relative-fold)” value [6] is on record?
Its value is greater than 28.

Which IC50 [8, 11] does the source give for `O=C1c2c(O)ccc(O)c2C(=O)c2c(NCCNCCO)ccc(NCCNCCO)c21` [Mitoxantrone, mitoxantrone] here?
Its IC50 is 37.4 ± 11.7 nM.

And the “RF, LCC6 + DMSO” value [8]?
Its value is 28.1.

What about the “RF, LCC6MDR + 1 μM FM04” value [6] of the same compound?
The value was 17.3.

What about the “RF, LCC6MDR + DMSO” value [6] of the same compound?
The value was 1.0.

Which “RF (relative-fold)” value [6] does the source give for `O=c1cc(-c2ccc(O)cc2)oc2cc(O)cc(O)c12` [apigenin] here?
Its value is 1.0.

And the EC50 [10]?
Its EC50 is greater than 10 µM.
